System: hypothalamic Notch signaling
Test: Daily third-ventricle injection of DLL4 in obese mice implanted with DNIκBα-hNSC
Type: in vivo
Description: In vivo implantation of hNSC with Notch inhibition counteracts obesity-T2D: Hypothalamic hNSC implantation was performed to investigate whether Notch inhibition could mimic IKKβ/NF-κB inhibition in counteracting obesity and related metabolic disorders. This investigation was also rationalized by the data showing that Notch signaling was robust (indicated by the active form of Notch 1 protein) in Sox2-positie cells of HFD-fed mice but not chow-fed mice (FIG. 7E). In the experiment, C57BL/6 mice received mediobasal hypothalamic injections of GFP-hNSC which carried Notch 1-4 shRNAs vs. control shRNA, and were then maintained on HFD vs. chow feeding. […] Thus, inhibition of Notch signaling can recapitulate the effect of NF-κB inhibition in the NSC implantation with respect to counteraction against HFD-induced obesity and metabolic disorders. Finally, hNSC implantation was employed to assess the IKKβ/NF-κB-Notch connection which was established in vitro. […] Therefore, NSC implantation can, at least, primarily employ neurogenetic program to counteract against metabolic disease, although other associated factors (such as inflammatory changes) probably also participate primarily or secondarily.

## DLL4: Notch protein ligand DLL4, injected daily into the third ventricle
Data not shown
  DNIκBα-hNSC induced neurogenesis: reversal of ^DNIκBα-hNSC induced neurogenesis
  hypothalamic inflammation: not an induction of hypothalamic inflammation
Mice already obese via chronic HFD feeding
  anti-obesity effect of DNIκBα-hNSC implantation: significantly abolished the anti-obesity effect

— patent US20180105863A1, “NEURAL STEM CELL THERAPY FOR OBESITY AND DIABETES” (ALBERT EINSTEIN COLLEGE OF MEDICINE, INC., priority 2012, published 2018)
